Key:
HiBit-KRAS^G12C [1] = biological target: T1, HiBit-KRAS^G12C (Homo sapiens, UniProt P01116, G12C); experiment: HiBit degradation assay in MiaPaCa-2 HiBit-KRas^G12C cells; format: cell-based; conditions: 0.5% DMSO, 24 hours; for DC50: read-out: KRas^G12C-HiBiT (MiaPaCa; 0.5% DMSO) IC50
How it was run: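 MiaPaCa-2 cells with CRISPR N-terminal HiBit knock-in on one endogenous KRAS^G12C allele, treated 24 hours at 37° C with compound titrated 10 μM to 20 nM (0.1% or 0.5% DMSO). Lytic HiBit luminescence normalized to DMSO, 4-parameter fit giving DC50 and Dmax; points cytotoxic to […] cells by alamar blue excluded.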

HiBit-KRAS^G12C [2] = biological target: T1, HiBit-KRAS^G12C; experiment: HiBit degradation assay in SW1573 HiBit-KRas^G12C cells; format: cell-based; set-up: expressed in transfected cells; host or cells: SW1573 (clone E6), modified pcDNA3.1 vector, TK promoter; conditions: SW1573 HiBit-KRas^G12C, 0.5% DMSO, 24 hours; for DC50: read-out: KRas^G12C-HiBiT (SW1573; 0.5% DMSO) IC50***
How it was run: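 SW1573 cells stably expressing N-terminally HiBit-tagged KRAS G12C, under the TK promoter, were treated 24 h at 37 °C with 10 μM to 20 nM compound in 0.1% or 0.5% DMSO. Residual HiBit luminescence normalised to DMSO and fitted with a 4-parameter model for DC50 and Dmax. Points with ≥50% viability loss (alamar blue) excluded.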

[3] = MiaPaCa-2 HiBit-KRas^G12C cells

T1 sequence (P01116 1-186 isoform P01116-2 G12C limits assumed): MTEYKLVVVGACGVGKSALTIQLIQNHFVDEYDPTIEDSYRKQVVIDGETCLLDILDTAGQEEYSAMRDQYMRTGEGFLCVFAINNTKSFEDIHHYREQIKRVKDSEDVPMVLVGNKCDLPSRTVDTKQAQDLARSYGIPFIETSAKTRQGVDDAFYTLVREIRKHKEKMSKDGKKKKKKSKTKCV

Row | DC50 (HiBit-KRAS^G12C [1]; [3]) | KRas^G12C-HiBiT (SW1573; 0.5% DMSO) Dmax** (HiBit-KRAS^G12C [2]) | DC50 (HiBit-KRAS^G12C [2]) | Dmax (HiBit-KRAS^G12C [1]; MIA PaCa-2, MiaPaCa-2 HiBit-KRas^G12C cells, maximum degradation, read-out: KRas^G12C-HiBiT (MiaPaCa; 0.5% DMSO) DMax) | KRas^G12C-HiBiT (MiaPaCa; 0.5% DMSO) DMax (HiBit-KRAS^G12C [1]; MiaPaCa-2 HiBit-KRas^G12C cells, maximum degradation) | SMILES | Dmax (HiBit-KRAS^G12C [1]; MIA PaCa-2, read-out: KRas^G12C-HiBiT (MiaPaCa; 0.5% DMSO) DMax, MiaPaCa-2 HiBit-KRas^G12C cells, maximum degradation) | Dmax (HiBit-KRAS^G12C [2]; SW1573, read-out: KRas^G12C-HiBiT (SW1573; 0.5% DMSO) Dmax**)
1 | > 1000 nM | B (35 < B < 70) | 100 to 1000 nM | – | – | C=C(F)C(=O)N1CCN(c2nc(OCCN3CCC(COc4cc([C@H](C(=O)N5C[C@H](O)C[C@H]5C(=O)N[C@@H](C)c5ccc(-c6scnc6C)cc5)C(C)C)on4)CC3)nc3c(F)c(-c4cc(O)cc5ccccc45)c(Cl)cc23)C[C@@H]1CC#N (atropisomer, axis not shown) [Compound 166, (2S,4R)-1-[(2R)-2-[3-({1-[2-({6-chloro-4-[(3S)-3-(cyanomethyl)-4-(2-fluoroprop-2-enoyl)piperazin-1-yl]-8-fluoro-7-(3-hydroxynaphthalen-1-yl)quinazolin-2-yl}oxy)ethyl]piperidin-4-yl}methoxy)-1,2-oxazol-5-yl]-3-methylbutanoyl]-4-hydroxy-N-[(1S)-1-[4-(4-methyl-1,3-thiazol-5-yl)phenyl]ethyl]pyrrolidine-2-carboxamide] | – | –
2 | < 100 nM | – | > 1000 nM | < 35% | – | C=CC(=O)N1CCN(c2nc(OCCN3CCC(COc4cc([C@@H](C(=O)N5C[C@@H](O)C[C@H]5C(=O)N[C@@H](C)c5ccc(-c6scnc6C)cc5)C(C)C)on4)CC3)nc3c(F)c(-c4cc(O)cc5ccccc45)c(Cl)cc23)C[C@@H]1CC#N (atropisomer, axis not shown) [Compound 105, (2S,4S)-1-[(2S)-2-[3-({1-[2-({6-chloro-4-[(3S)-3-(cyanomethyl)-4-(prop-2-enoyl)piperazin-1-yl]-8-fluoro-7-(3-hydroxynaphthalen-1-yl)quinazolin-2-yl}oxy)ethyl]piperidin-4-yl}methoxy)-1,2-oxazol-5-yl]-3-methylbutanoyl]-4-hydroxy-N-[(1S)-1-[4-(4-methyl-1,3-thiazol-5-yl)phenyl]ethyl]pyrrolidine-2-carboxamide] | – | –
3 | – | A (A ≥ 70) | – | – | A (A ≥ 70) | C=CC(=O)N1CCN(c2nc(OCCN3CCC(COCC(=O)N[C@H](C(=O)N4C[C@H](O)C[C@H]4C(=O)N[C@@H](C)c4ccc(-c5scnc5C)cc4)C(C)(C)C)CC3)nc3c(F)c(-c4cc(O)cc5ccccc45)c(Cl)cc23)C[C@@H]1CC#N (atropisomer, axis not shown) [Compound 163, (2S,4R)-1-[(2S)-2-[2-({1-[2-({6-chloro-4-[(3S)-3-(cyanomethyl)-4-(prop-2-enoyl)piperazin-1-yl]-8-fluoro-7-(3-hydroxynaphthalen-1-yl)quinazolin-2-yl}oxy)ethyl]piperidin-4-yl}methoxy)acetamido]-3,3-dimethylbutanoyl]-4-hydroxy-N-[(1S)-1-[4-(4-methyl-1,3-thiazol-5-yl)phenyl]ethyl]pyrrolidine-2-carboxamide] | – | –

Row | SMILES | DC50 (HiBit-KRAS^G12C [1]; [3]) | KRas^G12C-HiBiT (SW1573; 0.5% DMSO) Dmax** (HiBit-KRAS^G12C [2]) | DC50 (HiBit-KRAS^G12C [2]) | Dmax (HiBit-KRAS^G12C [1]; MIA PaCa-2, MiaPaCa-2 HiBit-KRas^G12C cells, maximum degradation, read-out: KRas^G12C-HiBiT (MiaPaCa; 0.5% DMSO) DMax) | KRas^G12C-HiBiT (MiaPaCa; 0.5% DMSO) DMax (HiBit-KRAS^G12C [1]; MiaPaCa-2 HiBit-KRas^G12C cells, maximum degradation) | Dmax (HiBit-KRAS^G12C [1]; MIA PaCa-2, read-out: KRas^G12C-HiBiT (MiaPaCa; 0.5% DMSO) DMax, MiaPaCa-2 HiBit-KRas^G12C cells, maximum degradation) | Dmax (HiBit-KRAS^G12C [2]; SW1573, read-out: KRas^G12C-HiBiT (SW1573; 0.5% DMSO) Dmax**)
4 | C=CC(=O)N1CCN(c2nc(OCCN3CCC(CN(C)CC(=O)N[C@H](C(=O)N4C[C@H](O)C[C@H]4C(=O)N[C@@H](C)c4ccc(-c5scnc5C)cc4)C(C)(C)C)CC3)nc3c(F)c(-c4cc(O)cc5ccccc45)c(Cl)cc23)C[C@@H]1CC#N [Compound 148, (2S,4R)-1-[(2S)-2-{2-[({1-[2-({6-chloro-4-[(3S)-3-(cyanomethyl)-4-(prop-2-enoyl)piperazin-1-yl]-8-fluoro-7-(3-hydroxynaphthalen-1-yl)quinazolin-2-yl}oxy)ethyl]piperidin-4-yl}methyl)(methyl)amino]acetamido}-3,3-dimethylbutanoyl]-4-hydroxy-N-[(1S)-1-[4-(4-methyl-1,3-thiazol-5-yl)phenyl]ethyl]pyrrolidine-2-carboxamide] | 100 to 1000 nM | – | 100 to 1000 nM | – | – | 35 to 70% | 35 to 70%
